According to ChEMBL document CHEMBL4725392, “Orally Bioavailable Small-Molecule CD73 Inhibitor (OP-5244) Reverses Immunosuppression through Blockade of Adenosine Production” (J Med Chem, 2020):

Columns and labels:
5'-nucleotidase [1] = target: T1, 5'-nucleotidase (Homo sapiens, UniProt P21589); experiment: Inhibition of human C-terminal His6-tagged CD73 expressed in CHO cells preincubated for 15 mins followed by AMP addition and measured after 10 mins by malachite green reagent based assay; format: cell-based
5'-nucleotidase [2] = target: T2, 5'-nucleotidase (Mus musculus, UniProt Q61503); experiment: Inhibition of CD73 in mouse EMT6 cells assessed as reduction in AMP-induced ADO expression preincubated for 15 mins followed by AMP addition and measured after 1 hr by LC-MS/MS analysis; format: cell-based
T2 sequence (Q61503 whole entry): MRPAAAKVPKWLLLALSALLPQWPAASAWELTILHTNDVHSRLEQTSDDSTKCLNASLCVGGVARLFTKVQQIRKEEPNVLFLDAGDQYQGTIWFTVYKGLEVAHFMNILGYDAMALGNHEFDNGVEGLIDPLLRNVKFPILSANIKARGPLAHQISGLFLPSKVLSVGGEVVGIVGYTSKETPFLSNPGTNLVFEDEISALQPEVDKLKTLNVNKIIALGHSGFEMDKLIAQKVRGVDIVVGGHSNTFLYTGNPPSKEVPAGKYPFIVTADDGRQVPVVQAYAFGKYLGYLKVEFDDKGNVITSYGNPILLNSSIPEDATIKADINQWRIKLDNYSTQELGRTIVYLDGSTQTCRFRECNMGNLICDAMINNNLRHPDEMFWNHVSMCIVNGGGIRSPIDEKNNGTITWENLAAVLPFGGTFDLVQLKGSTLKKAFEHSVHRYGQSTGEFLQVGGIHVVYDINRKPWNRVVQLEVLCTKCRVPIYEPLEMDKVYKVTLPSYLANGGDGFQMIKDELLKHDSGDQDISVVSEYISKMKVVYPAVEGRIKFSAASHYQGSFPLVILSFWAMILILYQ

[3] = AUC infinity in rat at 50 mg/kg, po; format: ADME, organism-based; set-up: time infinity, route oral, dose 50 mg/kg; conditions: in vivo
[4] = Terminal half life in rat at 50 mg/kg, po; format: ADME, organism-based; conditions: in vivo, read-out: beta t1/2 (converted)
[5] = Cmax in rat at 50 mg/kg, po; format: ADME, organism-based; set-up: route oral, dose 50 mg/kg; conditions: in vivo
5'-nucleotidase [6] = target: T1, 5'-nucleotidase; experiment: Inhibition of CD73 in human NCI-H1568 cells assessed as reduction in AMP-induced ADO expression preincubated for 15 mins followed by AMP addition and measured after 1 hr by LC-MS/MS analysis; format: cell-based
[7] = AUC infinity in mouse at 200 mg/kg, po; format: ADME, organism-based; set-up: route oral, time infinity, dose 200 mg/kg; conditions: in vivo
[8] = Cmax in mouse at 200 mg/kg, po; format: ADME, organism-based; set-up: route oral, dose 200 mg/kg; conditions: in vivo
[9] = Terminal half life in mouse at 200 mg/kg, po; format: ADME, organism-based; conditions: in vivo, read-out: beta t1/2 (converted)

T1 sequence (P21589 whole entry): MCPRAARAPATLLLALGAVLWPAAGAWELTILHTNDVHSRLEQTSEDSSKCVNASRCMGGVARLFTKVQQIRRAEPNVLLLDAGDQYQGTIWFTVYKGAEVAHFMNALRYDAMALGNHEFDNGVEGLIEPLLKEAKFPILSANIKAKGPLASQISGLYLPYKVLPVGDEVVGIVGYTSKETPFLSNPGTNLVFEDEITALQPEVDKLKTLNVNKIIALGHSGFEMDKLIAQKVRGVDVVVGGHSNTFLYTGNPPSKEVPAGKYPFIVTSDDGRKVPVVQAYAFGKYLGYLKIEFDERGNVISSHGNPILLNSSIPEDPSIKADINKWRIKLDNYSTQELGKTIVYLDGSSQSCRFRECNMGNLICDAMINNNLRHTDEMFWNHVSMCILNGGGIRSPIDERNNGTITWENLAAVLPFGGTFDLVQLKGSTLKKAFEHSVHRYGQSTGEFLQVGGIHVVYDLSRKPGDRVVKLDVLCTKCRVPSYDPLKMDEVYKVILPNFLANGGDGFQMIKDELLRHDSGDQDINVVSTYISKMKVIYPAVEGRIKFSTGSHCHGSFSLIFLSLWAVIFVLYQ

Compound | IC50 (5'-nucleotidase [1]) | other results
O=P(O)(O)CS(=O)(=O)NC[C@H]1O[C@@H](n2ncc3c(NCc4ccccc4Cl)nc(Cl)nc32)[C@H](O)[C@@H]1O | 328 nM | 
COC[C@@](CO)(OC[C@H]1O[C@@H](n2ncc3c(NC4CCCC4)nc(Cl)nc32)[C@H](O)[C@@H]1O)P(=O)(O)O | 1 nM | 
O=P(O)(O)C(OC[C@H]1O[C@@H](n2ncc3c(NC4CCCC4)nc(Cl)nc32)[C@H](O)[C@@H]1O)c1nnn[nH]1 (mixture of isomers) | 28 nM | 
CSCC(C)(OC[C@H]1O[C@@H](n2ncc3c(NC4CCCC4)nc(Cl)nc32)[C@H](O)[C@@H]1O)P(=O)(O)O (mixture of isomers) | 10 nM | 
O=P(O)(O)CCOC[C@H]1O[C@@H](n2ncc3c(NCc4ccccc4Cl)nc(Cl)nc32)[C@H](O)[C@@H]1O | 88 nM | 
C[C@H](Nc1cc(Cl)nc2c1cnn2[C@@H]1O[C@H](COP(=O)(O)CP(=O)(O)O)[C@@H](O)[C@H]1O)c1ccccc1F |  | EC50 (5'-nucleotidase [2]): 198 nM
CN(C)CC(C)(OC[C@H]1O[C@@H](n2ncc3c(NC4CCCC4)nc(Cl)nc32)[C@H](O)[C@@H]1O)P(=O)(O)O (mixture of isomers) | > 5000 nM | 
O=C(CP(=O)(O)O)OC[C@H]1O[C@@H](n2ncc3c(NCc4ccccc4Cl)nc(Cl)nc32)[C@H](O)[C@@H]1O | 510 nM | 
CN(C[C@H]1O[C@@H](n2ncc3c(NCc4ccccc4Cl)nc(Cl)nc32)[C@H](O)[C@@H]1O)C(=O)CP(=O)(O)O | 248 nM | 
CN(Cc1ccccc1)c1nc(Cl)nc2c1ncn2[C@@H]1O[C@H](COP(=O)(O)CP(=O)(O)O)[C@@H](O)[C@H]1O | 3 nM | 
COP(=O)(O)CP(=O)(O)OC[C@H]1O[C@@H](n2ncc3c(NCc4ccccc4Cl)nc(Cl)nc32)[C@H](O)[C@@H]1O | 131 nM | 
O=P(O)(O)CS(=O)(=O)C[C@H]1O[C@@H](n2ncc3c(NCc4ccccc4Cl)nc(Cl)nc32)[C@H](O)[C@@H]1O | 13 nM | AUC(0-inf) [3]: 0.54 µM·h; half-life [4]: 3 h; Cmax [5]: 0.06 µM
CC(CS(C)(=O)=O)(OC[C@H]1O[C@@H](n2ncc3c(NC4CCCC4)nc(Cl)nc32)[C@H](O)[C@@H]1O)P(=O)(O)O (mixture of isomers) | 23 nM | 
O=P(O)(O)CP(=O)(O)OC[C@H]1O[C@@H](n2nnc3c(NCc4ccccc4Cl)nc(Cl)nc32)[C@H](O)[C@@H]1O | 3.9 nM | 
N#CC(OC[C@H]1O[C@@H](n2ncc3c(NC4CCCC4)nc(Cl)nc32)[C@H](O)[C@@H]1O)P(=O)(O)O (mixture of isomers) | 559 nM | 
COP(=O)(CP(=O)(O)O)OC[C@H]1O[C@@H](n2ncc3c(NCc4ccccc4Cl)nc(Cl)nc32)[C@H](O)[C@@H]1O (some centres undefined) | 24.7 nM | 
CN(c1nc(Cl)nc2c1cnn2[C@@H]1O[C@H](COP(=O)(O)CP(=O)(O)O)[C@@H](O)[C@H]1O)[C@H]1CCc2ccccc21 | 0.52 nM | 
O=P(O)(O)C(CO)(CO)OC[C@H]1O[C@@H](n2ncc3c(NC4CCCC4)nc(Cl)nc32)[C@H](O)[C@@H]1O | 0.57 nM | EC50 (5'-nucleotidase [6]): 3.7 nM; AUC(0-inf) [7]: 95.6 µM·h; EC50 (5'-nucleotidase [2]): 46 nM; Cmax [8]: 67.4 µM; half-life [9]: 3.3 h
O=P(O)(O)COC[C@H]1O[C@@H](n2ncc3c(NCc4ccccc4Cl)nc(Cl)nc32)[C@H](O)[C@@H]1O | 29 nM | AUC(0-inf) [3]: 0.66 µM·h; half-life [4]: 1.9 h; Cmax [5]: 0.11 µM

Compound | IC50 (5'-nucleotidase [1]) | other results
CC(CO)(OC[C@H]1O[C@@H](n2ncc3c(NC4CCCC4)nc(Cl)nc32)[C@H](O)[C@@H]1O)P(=O)(O)O (mixture of isomers) | 1.3 nM | 
CN(CC(C)(OC[C@H]1O[C@@H](n2ncc3c(NC4CCCC4)nc(Cl)nc32)[C@H](O)[C@@H]1O)P(=O)(O)O)S(C)(=O)=O (mixture of isomers) | 97 nM | 
O=P(O)(O)COC[C@H]1O[C@@H](n2ncc3c(NC4CCCC4)nc(Cl)nc32)[C@H](O)[C@@H]1O | 11 nM | 
Nc1ncnc2c1ncn2[C@@H]1O[C@H](COP(=O)(O)CP(=O)(O)O)[C@@H](O)[C@H]1O [PHOSPHOMETHYLPHOSPHONIC ACID ADENOSYL ESTER] | 2650 nM | EC50 (5'-nucleotidase [6]): 16300 nM
COP(=O)(O)CP(=O)(OC)OC[C@H]1O[C@@H](n2ncc3c(NCc4ccccc4Cl)nc(Cl)nc32)[C@H](O)[C@@H]1O (some centres undefined) | 2870 nM | 
CN(c1nc(Cl)nc2c1nnn2[C@@H]1O[C@H](COP(=O)(O)CP(=O)(O)O)[C@@H](O)[C@H]1O)[C@H]1CCc2ccccc21 | 1.3 nM | 
O=P(O)(O)CSC[C@H]1O[C@@H](n2ncc3c(NCc4ccccc4Cl)nc(Cl)nc32)[C@H](O)[C@@H]1O | 164 nM | 
O=C(O)C(OC[C@H]1O[C@@H](n2ncc3c(NC4CCCC4)nc(Cl)nc32)[C@H](O)[C@@H]1O)P(=O)(O)O (mixture of isomers) | 108 nM | 
C[C@](CO)(OC[C@H]1O[C@@H](n2ncc3c(NC4CCCC4)nc(Cl)nc32)[C@H](O)[C@@H]1O)P(=O)(O)O | 11.7 nM | 
CC(OC[C@H]1O[C@@H](n2ncc3c(NC4CCCC4)nc(Cl)nc32)[C@H](O)[C@@H]1O)P(=O)(O)O (mixture of isomers) | 18 nM | 
CC(CCO)(OC[C@H]1O[C@@H](n2ncc3c(NC4CCCC4)nc(Cl)nc32)[C@H](O)[C@@H]1O)P(=O)(O)O (mixture of isomers) | 31 nM | 
CS(=O)(=O)C(OC[C@H]1O[C@@H](n2ncc3c(NC4CCCC4)nc(Cl)nc32)[C@H](O)[C@@H]1O)P(=O)(O)O (mixture of isomers) | 193 nM | 
O=P(O)(O)C(OC[C@H]1O[C@@H](n2ncc3c(NC4CCCC4)nc(Cl)nc32)[C@H](O)[C@@H]1O)C(F)(F)F (mixture of isomers) | 387 nM | 
O=P(O)(O)C(CO)OC[C@H]1O[C@@H](n2ncc3c(NC4CCCC4)nc(Cl)nc32)[C@H](O)[C@@H]1O (mixture of isomers) | 2.4 nM | 
O=P(O)(O)COCC[C@H]1O[C@@H](n2ncc3c(NCc4ccccc4Cl)nc(Cl)nc32)[C@H](O)[C@@H]1O | 1200 nM | 
COCC(OC[C@H]1O[C@@H](n2ncc3c(NC4CCCC4)nc(Cl)nc32)[C@H](O)[C@@H]1O)P(=O)(O)O (mixture of isomers) | 0.96 nM | 
C[C@@](CO)(OC[C@H]1O[C@@H](n2ncc3c(NC4CCCC4)nc(Cl)nc32)[C@H](O)[C@@H]1O)P(=O)(O)O | 0.51 nM | EC50 (5'-nucleotidase [6]): 6.9 nM; AUC(0-inf) [7]: 54.2 µM·h; EC50 (5'-nucleotidase [2]): 41 nM; Cmax [8]: 54.9 µM; half-life [9]: 2.88 h
COCC(CO)(OC[C@H]1O[C@@H](n2ncc3c(NC4CCCC4)nc(Cl)nc32)[C@H](O)[C@@H]1O)P(=O)(O)O (mixture of isomers) | 0.53 nM | 
